Patent publication US20100227381A1, “ENHANCED BIODEGRADATION OF NON-AQUEOUS PHASE LIQUIDS USING SURFACTANT ENHANCED IN-SITU CHEMICAL OXIDATION” (VERUTEK TECHNOLOGIES, INC., priority 2007, published 2010)

Legend:
[1] = pure compound in water; cited from earlier work
[2] = Chlorinated DNAPL dissolution in control sample without cosolvent-surfactant (equilibrium solubility in water in presence of the DNAPL); details: 25 °C, thermodynamic from solid
Method: In order to test the treatment of chlorinated compounds, a chlorinated solvent DNAPL was obtained from a site consisting of chlorinated solvents and chlorinated semi-volatile compounds. […]
The data collected under the experimentation conditions presented in Table 2 were obtained at 25° C. with 60 rpm shaker table mixing for 48 hours. After the shaker was shut off, the samples sat quietly for 5 minutes before the supernatant was analyzed. DNAPLmax represents the maximum concentration of DNAPL that may dissolve, given the mass of DNAPL and the volume of water.
Samples from experiment number 1, 3, 5, 7, and 8 (control) were analyzed. Additionally, measurements of interfacial tension (IFT) were conducted on the samples after the 48-hour period.

Row | SMILES | Pure Compound Aqueous Solubility [1] | solubility at 48 h [2]
1 | ClC(Cl)(Cl)C(Cl)(Cl)Cl [Hexachloroethane (HCE), Hexachloroethane] | 50 µg/mL | –
2 | ClC(Cl)=C(Cl)Cl [Tetrachloroethene (PCE), Tetrachloroethene] | 800 µg/mL | 140 µg/mL
3 | Clc1c(Cl)c(Cl)c2c(Cl)c(Cl)c(Cl)c(Cl)c2c1Cl [Octachloronaphthalene (OCN), Octachloronaphthalene] | insoluble | –
4 | ClC(Cl)=C(Cl)C(Cl)=C(Cl)Cl [Hexachlorobutadiene (HCBD), Hexachlorobutadiene] | 0.005 µg/mL | –
